According to article PMC9408872, “Harmicens, Novel Harmine and Ferrocene Hybrids: Design, Synthesis and Biological Activity” (International Journal of Molecular Sciences, 2022):
Where two headings read alike, the source gives them in different places.

Assays:
[1] = tested on: Hek293T (embryonic kidney cells); assay: MTT cytotoxicity assay, Hek293T; type: cell-based, human; settings: 72 h, read-out: IC50 Hek293T
Procedure: (§1) The parent compound harmine, as well as the reference drug 5-fluorouracil, were used as positive controls.
(§2) The experiments were carried out on five human cell lines purchased from American Type Culture Collection (ATCC): HepG2 (hepatocellular carcinoma; ATCC® HB-8065™), SW620 (colorectal adenocarcinoma; ATCC® CCL-227™), HCT116 (colorectal carcinoma; ATCC® CCL-247™), MCF-7 (breast adenocarcinoma; ATCC® HTB-22™), and Hek293T (embryonic kidney cells; ATCC® CRL-3216™). All cell lines were cultured as monolayers and maintained in Dulbecco’s Modified Eagle Medium (DMEM) (Capricorn Scientific, Ebsdorfergrund, Germany) supplemented with 10% fetal bovine serum (FBS) (Capricorn Scientific, Ebsdorfergrund, Germany), 100 U/mL penicillin, and 100 µg/mL streptomycin (Capricorn Scientific, Ebsdorfergrund, Germany) in a humidified atmosphere with 5% CO2 at 37 °C. Cells were seeded in 96-well plates (Corning, Durham, NC, USA) at 5000–7000 cells per well (depending on the cell-doubling time of a specific cell line) in 0.1 mL media and cultured for 24 h. The next day, the medium was aspirated, and cells were treated for 72 h. Only the compounds that led to more than a 50% reduction in mitochondrial metabolic activity at a concentration of 50 µM were selected for further analysis. The following concentrations of selected compounds were used: 25, 10, 5, and 1 µM. Working dilutions were freshly prepared on the day of the testing. A fresh growth medium was added to untreated control cells, which were defined as 100% viable. DMSO (0.13%) in DMEM was considered a negative control. 5-Fluorouracil (5-FU) and harmine were used as positive controls. At the end of treatment, the medium was removed, and cells were incubated for 1 h with 0.5 mg/mL MTT (Abcam, Cambridge, MA, USA) dissolved in serum-deprived DMEM. The MTT-containing medium was then removed, and 0.1 mL isopropanol was added per well to lyse cells and dissolve formazan. The optical density was measured at 570 nm using a microplate reader (VICTOR3, PerkinElmer, Waltham, MA, USA). Each test point was performed in triplicate. The absorbance was directly proportional to the cell viability. The IC50 values (concentration required to decrease viability by 50%) were calculated by using nonlinear regression on the sigmoidal dose–response plots and are expressed as mean ± SD.

[2] = tested on: SW620 (colorectal adenocarcinoma); assay: MTT cytotoxicity assay, SW620; type: cell-based, human; settings: read-out: IC50 SW620
Procedure: as §1, §2

[3] = tested on: HCT116 (colorectal carcinoma); assay: MTT cytotoxicity assay, HCT116; type: cell-based, human; settings: for IC50: read-out: IC50 HCT116; for SI (HCT116): selectivity index: ratio of IC50 Hek293T to IC50 HCT116
Procedure: as §1, §2

[4] = tested on: MCF-7 (breast adenocarcinoma); assay: cells; settings: for IC50: read-out: IC50 MCF-7; for SI (MCF-7): selectivity index: ratio of IC50 Hek293T to IC50 MCF-7
Procedure: as §1, §2

[5] = tested on: P. falciparum Dd2 (multidrug-resistant) erythrocytic stages; assay: In vitro drug sensitivity assay (HRP2-ELISA) against erythrocytic stages, PfDd2; type: cell-based; settings: for IC50: read-out: IC50 PfDd2
Procedure: (§3) The in vitro activity of harmicens 20–37 against the erythrocytic stages of CQ-sensitive (Pf3D7) and multidrug-resistant (PfDd2) P. falciparum strains was evaluated following a previously described method (Table 1).
(§4) The antiplasmodial activity of harmicens 20–37 was evaluated against two strains of P. falciparum (3D7—CQ-sensitive, Dd2—multidrug-resistant) as previously described using the histidine-rich protein 2 (HRP2) assay. Briefly, 96-well plates were pre-coated with the tested compounds in a three-fold dilution before ring-stage parasites were added to complete the culture medium at a hematocrit of 1.5% and parasitemia of 0.05%. After three days of incubation at 37 °C, 5% CO2, and 5% oxygen, plates were frozen until HRP2-ELISA analysis. All compounds were evaluated in duplicate in at least two independent experiments. The IC50 was determined using a nonlinear regression analysis of log concentration–response curves using the drc-package v0.9.0 of R v2.6.1 (R Foundation, Vienna, Austria).

[6] = tested on: P. falciparum 3D7 (CQ-sensitive) erythrocytic stages; assay: In vitro drug sensitivity assay (HRP2-ELISA) against erythrocytic stages, Pf3D7; type: cell-based; settings: read-out: IC50 Pf3D7
Procedure: as §3, §4

[7] = tested on: HepG2 (hepatocellular carcinoma); assay: MTT cytotoxicity assay, HepG2; type: cell-based, human; settings: read-out: IC50 HepG2
Procedure: as §1, §2

[8] = noncancer cell line, MTT, mean ± SD
[9] = multidrug-resistant strain, three days incubation, mean ± SD
[10] = CQ-sensitive strain, three days incubation, mean ± SD
[11] = Plasmodium falciparum, DD2, 72 h

| Compound | IC50 [1, 8] [µM] | IC50 ([2]; 72 h, MTT, mean ± SD) [µM] | IC50 ([3]; 72 h, MTT, mean ± SD) [µM] | SI (HCT116) [3] | IC50 ([4]; 72 h, MTT, mean ± SD) [µM] | SI (MCF-7) [4] | IC50 [5, 9] [nM] | IC50 [6, 10] [nM] | IC50 ([7]; 72 h, MTT, mean ± SD) [µM] | also measured |
| --- | --- | --- | --- | --- | --- | --- | --- | --- | --- | --- |
| Cc1nc(CNC(=O)C[c-]2cccc2)cc2c1[nH]c1ccccc12.[Fe+2].c1cc[cH-]c1 [Compound 35, N-((1-Methyl-9H-pyrido[3,4-b]indol-3-yl)methyl)-2-ferrocenylacetamide] | > 50 | 25 ± 8.1 | 20.9 ± 1.5 | >2.4 | 36.9 ± 6.8 | >1.4 | 13000 ± 5900 | 7850 ± 2180 | > 50 | – |
| O=C(NCc1nccc2c1[nH]c1ccccc12)[c-]1cccc1.[Fe+2].c1cc[cH-]c1 [Compound 30, N-((9H-Pyrido[3,4-b]indol-1-yl)methyl)ferrocenecarboxamide] | > 50 | 45.1 ± 3.7 | 16.8 ± 0.9 | >3 | 8.5 ± 1.5 | >5.9 | 14000 ± 1950 | > 56000 | > 50 | activity against MCF-7 relative to 5-FU (fold stronger) [4]: 3–6.5 fold |
| Cc1nccc2c1[nH]c1cc(OCCn3cc(-[c-]4cccc4)nn3)ccc12.[Fe+2].c1cc[cH-]c1 [Compound 23, 1-Methyl-7-(2-(4-ferrocenyl-1H-1,2,3-triazol-1-yl)ethoxy)-9H-pyrido[3,4-b]indole] | 17.1 ± 1.8 | 7.6 ± 0.1 | 38.6 ± 2.8 | 0.4 | 8 ± 0.2 | 2.1 | 1020 ± 520 | 150 ± 50 | 9.5 ± 0.5 | – |
| Cc1nccc2c1[nH]c1ccc(OCCn3cc(-[c-]4cccc4)nn3)cc12.[Fe+2].c1cc[cH-]c1 [Compound 22, 1-Methyl-6-(2-(4-ferrocenyl-1H-1,2,3-triazol-1-yl)ethoxy)-9H-pyrido[3,4-b]indole] | 7.3 ± 2.8 | 6.5 ± 0.7 | 9 ± 0.7 | 0.8 | 6.9 ± 0.5 | 1.1 | 890 ± 10 | 350 ± 190 | 8.4 ± 0.9 | – |
| COc1ccc2c3ccnc(C)c3n(CCNC(=O)C[c-]3cccc3)c2c1.[Fe+2].c1cc[cH-]c1 [Compound 37, N-(2-(7-Methoxy-1-methyl-9H-pyrido[3,4-b]indol-9-yl)ethyl)-2-ferrocenylacetamide] | 30.8 ± 2.4 | 9.9 ± 1.1 | 7.5 ± 0.4 | 4.1 | 13.2 ± 0.5 | 2.3 | 1800 ± 350 | 830 ± 230 | 28 ± 2.5 | – |
| 9-((1-(Ferocenylmethyl)-1H-1,2,3-triazol-4-yl)methyl)-7-methoxy-1-methyl-9H-pyrido[3,4-b]indole [Compound 29] | > 50 | > 50 | 14.6 ± 3.7 | >3.4 | > 50 | >1 | 2910 ± 50 | 2120 ± 810 | > 50 | – |
| Cc1nccc2c1[nH]c1ccc(OCc3cn(C[c-]4cccc4)nn3)cc12.[Fe+2].c1cc[cH-]c1 [Compound 27, 6-((1-(Ferrocenylmethyl)-1H-1,2,3-triazol-4-yl)methoxy)-1-methyl-9H-pyrido[3,4-b]indole] | 43 ± 8.6 | 8.1 ± 0.2 | > 50 | < 0.9 | 6.8 ± 0.2 | 6.3 | 1090 ± 10 | 310 ± 10 | 17 ± 0.3 | activity against MCF-7 relative to 5-FU (fold stronger) [4]: 3–6.5 fold |
| O=c1[nH]cc(F)c(=O)[nH]1 [Compound 5-FU, 5-fluorouracil, reference compound] | – | – | – | 1.6 | – | 0.3 | – | – | – | IC50 ([1]; Homo sapiens, HEK-293T, noncancer cell line, MTT, mean ± SD): 8.1 ± 0.8 µM; IC50 ([2]; Homo sapiens, SW-620, 72 h, MTT, mean ± SD): 9.4 ± 0.3 µM; IC50 ([3]; Homo sapiens, HCT-116, 72 h, MTT, mean ± SD): 5.2 ± 2.8 µM; IC50 ([4]; Homo sapiens, MCF7, 72 h): 23.9 ± 5.7 µM; IC50 ([7]; Homo sapiens, HepG2, 72 h, MTT, mean ± SD): 5.5 ± 0.6 µM |
| COc1ccc2c3ccnc(C)c3n(CCNC(=O)[c-]3cccc3)c2c1.[Fe+2].c1cc[cH-]c1 [Compound 33, N-(2-(7-Methoxy-1-methyl-9H-pyrido[3,4-b]indol-9-yl)ethyl)ferrocenecarboxamide] | > 50 | > 50 | 16.3 ± 3.2 | – | 30.5 ± 13.2 | >1.7 | 2040 ± 290 | 400 ± 180 | > 50 | – |
| [Fe+2].c1cc[cH-]c1.c1ccc2c(c1)[nH]c1c(-c3cn(C[c-]4cccc4)nn3)nccc12 [Compound 25, 1-(1-(Ferrocenylmethyl)-1H-1,2,3-triazol-4-yl)-9H-pyrido[3,4-b]indole] | > 50 | 23.1 ± 6.4 | 7.6 ± 0.5 | >6.6 | > 50 | >1 | 4370 ± 1790 | 3620 ± 1080 | > 50 | – |
| Cc1nc(-c2cn(C[c-]3cccc3)nn2)cc2c1[nH]c1ccccc12.[Fe+2].c1cc[cH-]c1 [Compound 26, 3-(1-(Ferrocenylmethyl)-1H-1,2,3-triazol-4-yl)-1-methyl-9H-pyrido[3,4-b]indole] | 46.5 ± 1 | 3.8 ± 0.4 | 35.2 ± 4.7 | 1.3 | 3.7 ± 0.2 | 12.6 | 4020 ± 610 | 2630 ± 270 | 12.3 ± 5 | activity against MCF-7 relative to 5-FU (fold stronger) [4]: 3–6.5 fold |
| Cc1nc(CNC(=O)[c-]2cccc2)cc2c1[nH]c1ccccc12.[Fe+2].c1cc[cH-]c1 [Compound 31, N-((1-Methyl-9H-pyrido[3,4-b]indol-3-yl)methyl)ferrocenecarboxamide] | > 50 | > 50 | > 50 | >1 | 19.9 ± 1.1 | >2.51 | 8030 ± 190 | 13200 ± 8540 | > 50 | – |
| CCN(CC)CCCC(C)Nc1ccnc2cc(Cl)ccc12 (stereo not drawn) [CQ, chloroquine, reference compound] | – | – | – | – | – | – | – | – | – | IC50 [5, 11]: 290 ± 100 nM; IC50 ([6]; Plasmodium falciparum, 3D7, 72 h): 4 ± 2 nM |
| Cc1nc(Cn2cc(-[c-]3cccc3)nn2)cc2c1[nH]c1ccccc12.[Fe+2].c1cc[cH-]c1 [Compound 21, 1-Methyl-3-((4-ferrocenyl-1H-1,2,3-triazol-1-yl)methyl)-9H-pyrido[3,4-b]indole] | > 50 | 19.7 ± 1.9 | 8.3 ± 1.4 | >6 | 17.7 ± 0.6 | >2.8 | 6060 ± 1360 | 7140 ± 380 | > 50 | – |
| COc1ccc2c(c1)[nH]c1c(C)nccc12 [HAR, harmine] | – | – | – | – | – | – | – | – | – | IC50 ([1]; Homo sapiens, HEK-293T): 12.6 ± 0.8 µM; IC50 ([2]; Homo sapiens, SW-620, 72 h): 4.7 ± 0.6 µM; IC50 ([3]; Homo sapiens, HCT-116, 72 h): 4 ± 0.8 µM; IC50 ([4]; Homo sapiens, MCF7, 72 h): 13.5 ± 1.1 µM; IC50 [5, 11]: > 27700 nM; IC50 PfDd2 [5, 9]: not active at all; IC50 ([7]; Homo sapiens, HepG2, 72 h): 18.7 ± 0.8 µM |
